From patent publication US11142533B2, “Macrocycles for use in treating disease” (TURNING POINT THERAPEUTICS, INC., priority 2019, dated 2021) come the findings set out here.

SMILES strings stand for the structures. ≈ marks a conversion by molar mass, not a printed value.

The IC50 is the concentration that gives 50% inhibition. Higher therefore signals weaker potency in that assay. The term AUC denotes concentration integrated over time. The low end stands for low exposure, the high end for high exposure. Broadly, the Cmax is the highest concentration seen after dosing. In general, Tmax refers to the time from dosing to the highest level. As usually defined, the solubility is the concentration that dissolves in the medium under given conditions. The microsomal CLint is the rate of metabolic loss divided by the concentration. A low value points to slow turnover.

In one series the target is KM12 (TPM3-TRKA) (Homo sapiens, UniProt P04629). As to the kind of experiment: Cell proliferation assay (CellTiter-Glo). On the technique in general: Cellular ATP, detected with luciferase, serves as a proxy for viable cell number.
The next series deals with KG-1 cell (OP2-FGFR1) (Homo sapiens, UniProt P11362). Kind of series: Cell proliferation assay (CellTiter-Glo).
Series [1] can be described thus: Mouse pharmacokinetic study. In kind it is in vivo. The settings on record: single oral dose (dose level not given), plasma. The method, then: To prepare 1 L of the vehicle solution (0.5% CMC and 1.0% Tween 80), 10 g of Tween 80 was mixed with 985 mL of water into a 1 L bottle. The mixture was stirred until Tween 80 was completely dissolved. With continued stirring, 5 g of CMC was very slowly sprinkled into the solution. Stirring was continued until all CMC was dissolved, which might take several hr. The resulting vehicle solution was stored at 4° C.
The compound was suspended in the vehicle solution and the mice were orally administrated with a single dose of the compound at the selected dose level. The blood samples were collected according to the defined time table into tubes containing K2-EDTA, followed by gentle mixing to assure distribution of the anti-coagulant. Immediately after the blood sample was collected and mixed, it was placed on ice. The samples were then centrifuged at 4° C. for 10 minutes at 5,000 RPM. The plasma was harvested into pre-labeled tubes and stored at −80° C. until analyzed by LC-MS/MS.

Series [2] can be described thus: Solubility test in phosphate buffer. In kind it is physicochemical. The settings on record: aqueous buffer, thermodynamic from solid; phosphate buffer pH 7.4, room temperature. Here is the method:
Aliquot of 1.035 mL phosphate buffer (PB) (pH 7.4) was added into 2.07 mg of the test compound (for a 2 mg·mL^−1 upper limiting solubility determination) in a 1.5 mL tubes. The mixture was ultrasonicly treated for 10 min and rotated on rotator at room temperature for more than 8 hr. After rotation, the tube was ultrasonicly treated for 10 min and centrifuged at 13000 rpm for 15 min. 0.3 mL of the supernatant was transferred into a 0.6 mL tube and discarded after rotated for 5 min for rinsing, then about 0.6 mL of the residual supernatant was transferred into the rinsed tube and centrifuged again at 13000 rpm for 15 min. The supernatant after every centrifugation was appropriately diluted and transferred for LC-MS/MS analysis where a standard curve was constructed with 7 concentration levels (2, 4, 10, 20, 40, 100 and 200 μg mL^−1) and used for the quantitation of the analyte in PB.

Series [3] is described as follows: Liver microsomal stability. The note with it: pH 7.4, 1 μM compound, 0.5 mg/mL liver microsome protein. In kind it is in vitro ADME. Here is the method:
The test compound stock solution was prepared by weighing 1.07 mg and dissolving in 0.261 mL of DMSO to achieve the concentration of 10 mM. Working solution of the test compound was prepared by diluting stock solution using DMSO to yield the concentration of 300 μM.
The assay was carried out in 96-well microtiter plates. In each well, the reaction mixture (25 μL) contained the test compound at the final concentration of 1 μM, 0.5 mg/mL liver microsome protein, and 1 mM NADPH in 100 mM potassium phosphate, pH 7.4 buffer with 3.3 mM MgCl2. The mixtures were incubated in duplicate at 37° C. for 0, 15, 30 or 60 minutes, and 150 μL of quench solution (acetonitrile with 0.1% formic acid) with internal standard (bucetin for positive ESI mode) was added into each well of reaction to terminate the reaction. The plates were then sealed and centrifuged at 4° C. for 15 minutes at 4000 rpm. The resulting supernatant was transferred to fresh plates for LC-MS/MS analysis of the test compounds. Verapamil was used as the positive control to validate the assay system.
All samples were analyzed with LC-MS/MS using an AB Sciex API 4000 instrument, coupled to a Shimadzu LC-20AD LC Pump system. Analytical samples were separated using a Waters Atlantis T3 dC18 reverse phase HPLC column (20 mm×2.1 mm) at a flow rate of 0.5 mL/min. The mobile phase consisted of 0.1% formic acid in water (solvent A) and 0.1% formic acid in acetonitrile (solvent B).
The extent of metabolism was calculated based on the disappearance of the test compound, compared to its initial concentration. The initial rates of clearance of test compounds were calculated using linear regression plot of semi-log % remaining of compounds versus time. The elimination rate constant (equals to negative slope) of the linear regression plot was then used to determine t112 and the intrinsic clearance (CLInt) using the following formula: k=−slope t1/2=0.693/k CLint=k/Cprotein
Where Cprotein (mg/mL) is the microsomal protein concentration in the incubation system.

[4] abbreviates: female, mouse, liver microsomes.

Sequence of KM12 (TPM3-TRKA) (P04629 with tags, fused parts or gaps): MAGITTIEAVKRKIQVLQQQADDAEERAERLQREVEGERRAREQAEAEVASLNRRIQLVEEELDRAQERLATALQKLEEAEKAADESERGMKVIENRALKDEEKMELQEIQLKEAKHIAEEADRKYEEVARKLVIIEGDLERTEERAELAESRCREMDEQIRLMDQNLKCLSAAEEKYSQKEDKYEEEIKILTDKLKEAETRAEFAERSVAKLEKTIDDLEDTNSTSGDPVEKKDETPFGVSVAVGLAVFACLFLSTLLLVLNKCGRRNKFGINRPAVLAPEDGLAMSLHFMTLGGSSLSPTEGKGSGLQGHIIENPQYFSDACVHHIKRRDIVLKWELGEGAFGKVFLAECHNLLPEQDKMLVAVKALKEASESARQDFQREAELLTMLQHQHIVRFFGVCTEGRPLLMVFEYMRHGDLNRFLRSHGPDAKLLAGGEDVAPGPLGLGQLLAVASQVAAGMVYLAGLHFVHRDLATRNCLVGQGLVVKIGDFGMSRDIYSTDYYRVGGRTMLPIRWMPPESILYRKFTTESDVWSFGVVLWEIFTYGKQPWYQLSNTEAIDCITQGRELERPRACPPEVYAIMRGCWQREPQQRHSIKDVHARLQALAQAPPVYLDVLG
Sequence of KG-1 cell (OP2-FGFR1) (P11362 456-822 limits assumed): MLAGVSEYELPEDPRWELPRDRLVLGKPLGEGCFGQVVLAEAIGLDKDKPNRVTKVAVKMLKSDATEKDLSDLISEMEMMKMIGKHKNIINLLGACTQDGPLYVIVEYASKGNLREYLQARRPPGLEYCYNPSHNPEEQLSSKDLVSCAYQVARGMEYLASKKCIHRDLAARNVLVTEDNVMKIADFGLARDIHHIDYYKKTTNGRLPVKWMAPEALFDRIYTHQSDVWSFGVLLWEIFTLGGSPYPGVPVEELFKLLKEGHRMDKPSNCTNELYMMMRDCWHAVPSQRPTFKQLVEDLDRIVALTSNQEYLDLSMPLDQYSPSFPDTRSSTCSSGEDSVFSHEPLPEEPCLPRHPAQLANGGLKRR

Regarding `O=C1NCCCOc2ccc(F)cc2CN2c3nc4c1cnn4cc3OC[C@H]2C(F)F` [Compound 3, (16S)-16-(Difluoromethyl)-12-fluoro-5,6,7,8,16,17-hexahydro-4H,14H-1,19-(metheno)[1,4]oxazino[3,4-j]pyrazolo[4,3-g][1,5,9,11]benzoxatriazacyclotetradecin-4-one], the concentration for half-maximal inhibition (IC50) against KM12 (TPM3-TRKA) was less than 0.2 nM; against KG-1 cell (OP2-FGFR1), 75.3 nM.
Consider `C[C@@H]1COc2cn3ncc4c3nc2N1Cc1cc(F)cnc1OCC(C)(C)NC4=O` [Comp. Ex. 2, reference compound], for which the IC50 against KM12 (TPM3-TRKA) worked out at 0.2 nM; against KG-1 cell (OP2-FGFR1), 0.65 nM. This compound yielded an AUC in series [1] of 18700 ng·h/mL. In addition, in series [1], the Cmax is 2900 ng/mL. For the same compound, the time to peak (Tmax) in series [1] was 30 min. The solubility in series [2] is 4.9 µg/mL (≈ 11.9 µM). For the same compound, the microsomal CLint at 1 µM turned out to be 21 µL/min/mg in series [3] (setting [4]); 5.9 µL/min/mg in series [3] (female, rat, liver microsomes); 3.9 µL/min/mg in series [3] (human, pooled liver microsomes).
For `O=C1NC2(CCOc3ccc(F)cc3CN3c4nc5c1cnn5cc4OC[C@H]3C(F)F)CC2` [Compound 6, (16′S)-16′-(Difluoromethyl)-12′-fluoro-4′H,5′H,7′H,8′H,14′H,16′H,17′H-spiro[cyclopropane-1,6′-[1,19](metheno)[1,4]oxazino[3,4-j]pyrazolo[4,3-g][1,5,9,11]benzoxatriazacyclotetradecin]-4′-one], the IC50 against KM12 (TPM3-TRKA) is less than 0.2 nM; against KG-1 cell (OP2-FGFR1), 385 nM.
Consider `C[C@@H]1CCOc2ccc(F)cc2CN2c3nc4c(cnn4cc3OC[C@H]2C(F)F)C(=O)N1` [Compound 5, (6R,16S)-16-(Difluoromethyl)-12-fluoro-6-methyl-5,6,7,8,16,17-hexahydro-4H,14H-1,19-(metheno)[1,4]oxazino[3,4-j]pyrazolo[4,3-g][1,5,9,11]benzoxatriazacyclotetradecin-4-one], for which the IC50 against KM12 (TPM3-TRKA) was less than 0.2 nM; against KG-1 cell (OP2-FGFR1), 514 nM.
Taken in the same sequence, the figures for `CC1(C)CCOc2ccc(F)cc2CN2c3nc4c(cnn4cc3OC[C@H]2C(F)F)C(=O)N1` [Compound 8, (16S)-16-(Difluoromethyl)-12-fluoro-6,6-dimethyl-5,6,7,8,16,17-hexahydro-4H,14H-1,19-(metheno)[1,4]oxazino[3,4-j]pyrazolo[4,3-g][1,5,9,11]benzoxatriazacyclotetradecin-4-one] were less than 0.2 nM and 2100 nM.
Consider `CC1(C)CNC(=O)c2cnn3cc4c(nc23)N(Cc2cc(F)ccc2OC1)[C@H](C(F)F)CO4` [Compound 7, (16S)-16-(Difluoromethyl)-12-fluoro-7,7-dimethyl-5,6,7,8,16,17-hexahydro-4H,14H-1,19-(metheno)[1,4]oxazino[3,4-j]pyrazolo[4,3-g][1,5,9,11]benzoxatriazacyclotetradecin-4-one], for which the values for the IC50 on KM12 (TPM3-TRKA) and at KG-1 cell (OP2-FGFR1) were less than 0.2 nM and 40.7 nM, respectively.
For the compound `C[C@@H]1COc2ncc(F)cc2CN2c3nc4c(cnn4cc3OC[C@H]2C)C(=O)N1` [Comp. Ex. 1, reference compound], the IC50 was less than 0.2 nM on KM12 (TPM3-TRKA) and 22.2 nM against KG-1 cell (OP2-FGFR1). In series [1], this compound yielded an exposure (AUC) of 12300 ng·h/mL. The compound further returned a Cmax in series [1] of 4190 ng/mL. Besides, in series [1], the Tmax was found to be 30 min. Also, in series [2], the solubility worked out at 7.9 µg/mL (≈ 19.8 µM). Besides, the microsomal CLint at 1 µM worked out at 22 µL/min/mg in series [3] (setting [4]); 10 µL/min/mg in series [3] (female, rat, liver microsomes); 2.6 µL/min/mg in series [3] (human, pooled liver microsomes).
Compound `O=C1NC2(CC2)COc2ccc(F)cc2CN2c3nc4c1cnn4cc3OC[C@H]2C(F)F` [Compound 4, (4′S)-4′-(Difluoromethyl)-8′-fluoro-3′H,4′H,6′H,12′H,14′H,15′H-spiro[cyclopropane-1,13′-[18,1](metheno)[1,4]oxazino[3,4-i]pyrazolo[4,3-f][1,4,8,10]benzoxatriazacyclotridecin]-15′-one] had an IC50 at KG-1 cell (OP2-FGFR1) of 60.9 nM.
